Assay results from PMC9681850, “Structural basis of synthetic agonist activation of the nuclear receptor REV-ERB” (Nature Communications, 2022).
“And” between values parts separate entries of the source, which are not always exact repeats. Identical values can stand only once.

Legend:
HepG2 cells = assay: cell viability by crystal violet staining; assay type: cell-based, human; conditions: for cell viability (Fig 2a source data): crystal violet, normalized to DMSO, single replicates
Protocol: Cellular viability was tested in two cell types, human hepatocarcinoma HepG2 cells and proliferating C2C12 mouse myoblast cells.
Data are presented as mean ± SEM. Source data are available as a Source Data file.
The human hepatocellular carcinoma cell line, HepG2 cells (ATCC HB-8065), were cultured in 10% FBS 1% L-Glu MEM at 37 °C in a humidified atmosphere of 5% CO2. Prior to RNA extraction cells were treated with either DMSO or REV-ERB agonist for 24 h. The C2C12 proliferating mouse myoblast cells (ATCC, CRL-1772) were cultured in 10% FBS DMEM at 37 °C in a humidified atmosphere of 5% CO2. Prior to RNA extraction cells were treated with either DMSO or REV-ERB agonist for 24 h. […]
[…] Media was removed, and cells were incubated with 0.5% crystal violet solution for 20 min at room temperature with mild agitation. Cells were washed four times with tap water before being air drying overnight. Cells were incubated in methanol for 20 min with mild agitation. Absorbance was read at 570 nm, and readings were normalized to vehicle (DMSO) treated cells.

PXR = PXR (Homo sapiens, UniProt O75469); assay: PXR assay; assay type: cell-based; conditions: relative to 5μM rifampicin
Text: We thank the reviewers for the constructive comments, and we have responded to each of the […]
Overall, this is a commendable structure-function study on the transcriptional repressor, REV-ERBα. It includes the identification of an agonist that belongs to the non-heme class of small ligands. The study combines cell-based and in vitro, in vivo, and crystallographic analyses of the ligand-receptor molecular complex.
However, as a spring-board for therapeutic drug discovery, there are a few additional issues that may need to be clarified.
1. In the HEK293 2-hybrid assay, the ERB agonists are described as activators of transcription.
Perhaps, they would be more appropriately described as 'repressors'.
We have updated the manuscript to clarify this issue. In the original manuscript, we used the following to describe how the 2-hybrid assay switches agonists from repressors to activators to allow for better resolution of activity, “This format of the assay essentially functions as a mammalian 2-hybrid assay and detects REVERB agonists as activators of transcription effectively enhancing the sensitivity of such an assay from the typical one hybrid system that detects enhancement of transcriptional repression.” […]

C2C12 cells = assay: relative gene expression of REV-ERB responsive genes by qPCR; assay type: cell-based, mouse; conditions: C2C12, 5uM; single replicates; listed as SR1267
Text: We next determined whether STL1267 can regulate characterized REV-ERB modulated genes in cell lines expressing REV-ERB naturally. Five micromolar doses of both drugs were used in cell-based experiments from this point on. REV-ERB is an established component of the core molecular clock repressing the expression of core clock gene Bmal1[6],[27] as well as others[28],[29]. […] In skeletal muscle, REV-ERB agonism increases the expression of a wide variety of genes important in mitochondrial function.
The human hepatocellular carcinoma cell line, HepG2 cells (ATCC HB-8065), were cultured in 10% FBS 1% L-Glu MEM at 37 °C in a humidified atmosphere of 5% CO2. Prior to RNA extraction cells were treated with either DMSO or REV-ERB agonist for 24 h. The C2C12 proliferating mouse myoblast cells (ATCC, CRL-1772) were cultured in 10% FBS DMEM at 37 °C in a humidified atmosphere of 5% CO2. Prior to RNA extraction cells were treated with either DMSO or REV-ERB agonist for 24 h. Prior to crystal violet cytotoxicity assay, cells were treated with either DMSO or REV-ERB agonist for 48 h.
Mouse tissue was homogenized using a bullet blender. DNA/protein was removed by phase separation using BCP/chloroform. The supernatant (RNA containing fraction) was collected, and RNA was precipitated using isopropanol. The RNA pellets were washed with 75% ethanol and resolubilized in RNAse free water. The purity of the RNA was tested by agarose gel prior to cDNA synthesis. Total RNA was harvested from HepG2 and C2C12 using the RNeasy mini kit according to manufacturer’s instructions (Qiagen).
Isolated RNA was reverse transcribed into cDNA using the qScript^TMcDNA Synthesis kit according to the manufacturer’s instructions (QuantaBio). Quantative PCR (qPCR) was performed on a QuantStudio^TM 6 Flex or QuantStudio^TM 7 Flex (Life Technologies) using SYBR^TM Select Master Mix (Applied BioSystems) with select primers (Table S2). Gene expression was normalized to Ppia for all data sets. Oligonucleotide sequences are provided in Supplementary Table 2.

Chain of PXR (O75469 whole entry): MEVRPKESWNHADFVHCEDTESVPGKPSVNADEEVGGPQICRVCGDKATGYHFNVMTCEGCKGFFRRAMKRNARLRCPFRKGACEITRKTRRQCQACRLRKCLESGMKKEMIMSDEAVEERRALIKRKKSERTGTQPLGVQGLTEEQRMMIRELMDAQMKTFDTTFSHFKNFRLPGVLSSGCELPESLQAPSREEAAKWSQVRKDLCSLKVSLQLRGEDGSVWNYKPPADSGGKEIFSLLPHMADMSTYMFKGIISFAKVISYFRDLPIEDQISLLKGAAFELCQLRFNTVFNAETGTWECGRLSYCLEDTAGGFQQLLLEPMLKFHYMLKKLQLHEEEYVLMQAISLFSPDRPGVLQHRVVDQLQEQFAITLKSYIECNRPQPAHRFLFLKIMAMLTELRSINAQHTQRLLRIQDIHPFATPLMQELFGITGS

In the case of `Clc1nnc2ccc(Oc3ccccc3-c3ccccc3)nn12` [STL1267], the “cell viability (Fig 2a source data)” value (HepG2 cells; HepG2, 1uM) is reported as 100.259 and 103.289 and 114.098 and 100.562 and 101.976 and 107.785 and 108.29 and 110.916, the “cell viability (Fig 2a source data)” value (HepG2 cells; HepG2, 2uM) is reported as 94.905 and 99.6528 and 117.735 and 107.532 and 113.391 and 106.219 and 106.421 and 103.794 and the “cell viability (Fig 2a source data)” value (HepG2 cells; HepG2, 5uM) is reported as 93.8443 and 82.581 and 107.936 and 102.38 and 83.3891 and 98.2385 and 86.8237 and 96.4202. The “cell viability (Fig 2a source data)” value (HepG2 cells; HepG2, 10uM) was 88.9955 and 75.7624 and 90.8643 and 100.208 and 77.7322 and 91.3189 and 89.0965 and 88.0359, the “cell viability (Fig 2a source data)” value (HepG2 cells; HepG2, 20uM) was 83.6922 and 74.4997 and 94.7535 and 87.2782 and 90.0057 and 93.8948 and 95.4101 and 87.8338 and the “effect on cell viability” value (HepG2 cells; HepG2 cells, up to the maximum dose examined (20 μM)) was “no adverse effects on cell viability”. The “activity at PXR, of the activity of 5μM rifampicin” value (PXR) was 18%, the “Ppargca1 relative gene expression” value (C2C12 cells) was 8.425 and 7.081 and 5.71 and the “lcad relative gene expression” value (C2C12 cells) was 25.4657 and 24.2235 and 14.2579. For the same compound, the “lkb1 relative gene expression” value (C2C12 cells) was 4.349 and 3.556 and 2.4615, the “mt-Nd1 relative gene expression” value (C2C12 cells) was 3.873 and 3.557 and 4.501 and the “mt-co1 relative gene expression” value (C2C12 cells) was 7.748 and 5.296 and 5.742. The “nampt relative gene expression” value (C2C12 cells) was 4.112 and 2.537 and 1.9657, the “scad relative gene expression” value (C2C12 cells) was 25.4657 and 24.2235 and 14.2579 and the “sirt1 relative gene expression” value (C2C12 cells) was 4.33 and 3.474 and 1.956. For the same compound, the “vlcad relative gene expression” value (C2C12 cells) was 14.2905 and 16.1127 and 7.599.
